Experimental data taken from patent US12304910B2, “Janus kinase (JAK) family inhibitor, preparation of same, and applications thereof” (JIANGSU VCARE PHARMATECH CO., LTD., priority 2019, dated 2025).
pIC50: −log10 of the molar value.

What was measured:
JAK3 = molecular target: T1, JAK3 (Homo sapiens, UniProt P52333); assay: Kinase activity test (γ33P-ATP isotopic method), JAK3; assay type: biochemical; conditions: 33P-ATP 10 μM, 2 h reaction
T1 sequence (P52333 1-1124): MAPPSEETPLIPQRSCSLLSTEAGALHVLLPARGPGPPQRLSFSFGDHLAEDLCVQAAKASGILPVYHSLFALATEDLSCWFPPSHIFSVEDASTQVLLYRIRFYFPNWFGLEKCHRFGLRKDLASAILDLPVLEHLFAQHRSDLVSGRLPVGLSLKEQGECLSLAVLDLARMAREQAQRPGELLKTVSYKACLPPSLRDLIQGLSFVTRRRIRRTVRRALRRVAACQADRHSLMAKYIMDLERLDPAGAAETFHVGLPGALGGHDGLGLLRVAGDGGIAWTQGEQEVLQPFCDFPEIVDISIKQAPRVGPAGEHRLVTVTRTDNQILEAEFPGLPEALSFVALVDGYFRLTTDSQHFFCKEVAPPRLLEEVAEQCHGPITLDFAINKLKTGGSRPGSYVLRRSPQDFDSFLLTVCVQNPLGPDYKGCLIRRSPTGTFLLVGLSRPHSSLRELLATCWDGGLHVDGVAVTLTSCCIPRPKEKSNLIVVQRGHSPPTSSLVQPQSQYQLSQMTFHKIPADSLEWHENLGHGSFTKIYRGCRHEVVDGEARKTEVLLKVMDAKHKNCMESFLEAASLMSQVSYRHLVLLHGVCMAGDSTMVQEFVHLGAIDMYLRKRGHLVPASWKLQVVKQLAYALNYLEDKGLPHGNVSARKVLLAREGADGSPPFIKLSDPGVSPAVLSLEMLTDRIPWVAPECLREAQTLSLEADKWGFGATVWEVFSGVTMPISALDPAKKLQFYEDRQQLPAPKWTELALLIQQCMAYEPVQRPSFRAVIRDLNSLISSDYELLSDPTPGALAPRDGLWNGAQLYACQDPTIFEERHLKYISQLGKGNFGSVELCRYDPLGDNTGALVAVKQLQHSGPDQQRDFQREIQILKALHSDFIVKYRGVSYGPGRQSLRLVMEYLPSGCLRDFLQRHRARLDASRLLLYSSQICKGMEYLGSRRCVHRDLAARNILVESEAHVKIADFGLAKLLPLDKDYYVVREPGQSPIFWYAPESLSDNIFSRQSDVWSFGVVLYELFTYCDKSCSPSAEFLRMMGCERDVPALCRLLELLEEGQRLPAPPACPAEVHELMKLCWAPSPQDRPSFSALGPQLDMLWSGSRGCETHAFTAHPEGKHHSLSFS
Description: (§1) This experiment adopted a γ^33p-ATP isotopic test method to test the inhibitory effect of a compound on kinases JAK1, JAK2, JAK3 and TYK2, and obtained a half inhibitory concentration IC50 of the compound for inhibiting activity of the kinase.
(§2) 20 mM 4-hydroxyethylpiperazine ethanesulfonic acid buffer (Hepes, pH 7.5), 10 mM magnesium chloride (MgCl2), 1 mM ethylene glycol diethyl ether diamine tetraacetic acid (EGTA), 0.02% dodecyl polyethylene glycol ether (Brij35), 0.02 mg/ml bovine serum albumin (BSA), 0.1 mM sodium vanadate (Na3VO4), 2 mM dithiothreitol (DTT), and 1% dimethylsulfoxide (DMSO).
(§3) A compound is dissolved with 100% DMSO to a specific concentration, and then subjected to gradient dilution by an automatic sampling device to obtain the samples to be tested with different concentrations (DMSO solutions).
(§4) 3.1 diluting the reaction substrate with the basic reaction buffer;
(§5) 3.2 adding the kinase into the substrate solution, and gently mixing well;
(§6) 3.3 adding, by the automatic sampling system, the 100% DMSO diluted compounds with different concentrations into the kinase solution, and incubating for 20 min at room temperature; and
(§7) 3.4 adding ^33p-ATP (10 μM, 10 μCi/μl) at room temperature to initiate the kinase reaction for a duration of 2 h.
(§8) The unreacted ATP and the reaction-generated […] in the reaction were removed by an ion exchange filtering system, and then the amount of radioactivity of ^33p isotope in the substrate was detected.
(§9) According to the amount of radioactivity, the kinase activities in the systems added with the inhibitors of different concentrations were calculated, to obtain the inhibitors' effects of the compounds of different concentrations on the kinase activity; and fitting was performed with graphpad prism to obtain the inhibitory IC50 values of the compounds.

TYK2 = TYK2 (Homo sapiens, UniProt P29597); assay: Kinase activity test (γ33P-ATP isotopic method), TYK2; assay type: biochemical; conditions: 33P-ATP 10 μM, 2 h reaction
TYK2, sequence (P29597 whole entry): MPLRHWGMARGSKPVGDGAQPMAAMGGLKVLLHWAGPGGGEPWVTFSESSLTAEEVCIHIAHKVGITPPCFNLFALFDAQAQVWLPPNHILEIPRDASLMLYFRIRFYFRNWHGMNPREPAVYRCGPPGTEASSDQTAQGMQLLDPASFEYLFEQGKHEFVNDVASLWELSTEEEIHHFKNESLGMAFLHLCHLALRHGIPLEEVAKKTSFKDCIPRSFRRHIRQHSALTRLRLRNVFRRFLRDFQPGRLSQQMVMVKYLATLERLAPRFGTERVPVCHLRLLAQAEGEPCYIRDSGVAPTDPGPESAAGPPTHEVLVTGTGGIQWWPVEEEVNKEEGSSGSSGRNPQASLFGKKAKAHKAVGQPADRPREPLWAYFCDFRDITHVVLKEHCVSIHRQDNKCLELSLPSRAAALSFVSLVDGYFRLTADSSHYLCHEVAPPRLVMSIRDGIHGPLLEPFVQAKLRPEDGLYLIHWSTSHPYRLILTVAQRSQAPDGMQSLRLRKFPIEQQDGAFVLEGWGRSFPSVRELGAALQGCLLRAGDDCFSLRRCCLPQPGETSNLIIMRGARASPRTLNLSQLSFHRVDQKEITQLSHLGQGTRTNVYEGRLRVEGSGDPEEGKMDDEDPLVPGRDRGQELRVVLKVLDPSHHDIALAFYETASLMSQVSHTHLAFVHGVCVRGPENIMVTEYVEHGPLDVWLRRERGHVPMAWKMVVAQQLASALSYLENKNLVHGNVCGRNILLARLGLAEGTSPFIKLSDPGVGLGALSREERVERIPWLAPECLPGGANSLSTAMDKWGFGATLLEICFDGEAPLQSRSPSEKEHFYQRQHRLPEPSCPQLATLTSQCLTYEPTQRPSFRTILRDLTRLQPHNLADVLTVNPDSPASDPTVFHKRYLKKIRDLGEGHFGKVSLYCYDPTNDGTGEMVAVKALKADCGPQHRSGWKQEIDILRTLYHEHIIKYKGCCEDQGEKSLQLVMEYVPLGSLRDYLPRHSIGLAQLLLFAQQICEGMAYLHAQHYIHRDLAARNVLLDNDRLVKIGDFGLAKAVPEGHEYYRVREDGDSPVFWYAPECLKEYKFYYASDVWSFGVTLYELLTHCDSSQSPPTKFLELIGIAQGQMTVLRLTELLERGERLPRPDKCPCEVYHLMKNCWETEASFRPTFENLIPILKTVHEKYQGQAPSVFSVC
Description: as §1, §2, §3, §4, §5, §6, §7, §8, §9

[1] = Liver microsome test (metabolic stability); assay type: in vitro ADME, human
Description: In an incubation system with a total volume of 250 μL, an incubation solution of hum an liver microsomes containing 0.5 mg/mL protein was formulated with a 50 mmol/L PBS buffer (pH=7.4). Before the start of incubation, 2.5 μL of a 100 μmol/L compound to be tested was mixed with 197.5 μL of the above incubation buffer, pre-incubated for 5 min in a 37° C. water bath, and then added with 50 μL of a reducing coenzyme II solution (5 mmol/L) that was likewise pre-incubated for 5 min to start a reaction (in the reaction system, the protein content of liver microsomes from various species was 0.5 g/L, and the final concentration of the compound to be tested was 1 μmol/L), incubated in a 37° C. water bath with shaking, and taken out at 0, 5, 15, 30, and 60 min respectively. 600 μL of a methanol solution of mixed positive and negative internal standards with internal standards Terfenadine (positive ion internal standard, 25 ng/mL) and Tolbutamide (negative ion internal standard, 50 ng/mL) was immediately added to terminate the reaction. The incubation solution after termination was shaken for 2 min and centrifuged (4° C., 16000 r/min) for 10 min, and the supernatant was taken for LC-MS/MS detection to quantitatively analyze the remaining amount of the parent drug. (DMSO=0.1%).
The concentration of the compound at 0 mi incubation was regarded as 100%, and the concentrations at other incubation time points were converted into the remaining percentages. The natural logarithm of the remaining percentage at each time point was linearly regressed against the incubation time, and the slope k was calculated. According to the formula T1/2=−0.693/k, the in vitro half-life was calculated. Clearance in liver microsomes (CLint (μL/min/mg protein)=Ln (2)*1000/T1/2 (min/Protein Conc (mg/ml)).

[2] = human liver microsomes, conclusion from Table 2

pIC50 (JAK3): 8.51
pIC50 (TYK2): 8.83
Remaining % (60 min) ([1]; human liver microsomes 0.5 mg/mL protein, compound 1 μmol/L, 37° C., 60 min): 91.9%
metabolic stability in liver microsomes (in words) [1, 2]: excellent metabolic activity in liver
half-life at 1 μmol/L ([1]; pH 7.4, human liver microsomes 0.5 mg/mL protein, compound 1 μmol/L, 37° C.): 5.5 h
microsomal CLint at 1 μmol/L ([1]; pH 7.4, human liver microsomes 0.5 mg/mL protein, compound 1 μmol/L, 37° C., read-out: Clint (μL/min/mg protein)): 4.2 µL/min/mg
Structure (SMILES): NC(=O)c1cnc2[nH]ccc2c1NN1CCC[C@H](C(=O)NCC(F)F)C1 [Example 2, (S)-4-(3-(2,2-difluoroethylcarbamoyl)piperidine-1-amino)-1H-7-azaindole-5-carboxamide]
metabolic half-life in liver microsomes compared with Tofacitinib (in words) [1, 2]: significantly superior to the positive drug Tofacitinib
